The source of these data is ChEMBL document CHEMBL1154681, “Structural aspects of flavonoids as inhibitors of human butyrylcholinesterase” (Eur J Med Chem, 2010).

The source made the active and inactive calls. No cut-off for these calls is given here.

For one data set, the target named is Acetylcholinesterase (Homo sapiens, UniProt P22303). Briefly: Inhibition of human recombinant AChE by Ellman's method. In general terms: Ellman's reagent forms a yellow product with free thiols.
The nature of data set [1]: Stability in phosphate buffer at pH 7.4 after 90 mins by spectrophotometry. It is filed as physicochemical. The settings on record: pH 7.4, 1.5 h.
Another data set relates to HepG2. Put plainly: Cytotoxicity against human HepG2 cells upto 200 umol/L after 24 hrs by MTS assay. It is filed as cell-based. Particulars: hepg2, 24 h.
A further data set has as its system THP-1. Briefly: Cytotoxicity against human THP1 cells after 24 hrs by MTS assay. It is filed as cell-based.
The subject of another data set is A549. Put plainly: Cytotoxicity against human A549 cells upto 200 umol/L after 24 hrs by MTS assay. It is filed as cell-based. The settings on record: a549, 24 h. In general terms: Tetrazolium dyes change colour on reduction, which living cells bring about.
In data set [2] the target is T1, Cholinesterase (Homo sapiens, UniProt P06276). Briefly: Inhibition of human plasma BChE by Ellman's method.
T1 sequence (P06276 whole entry): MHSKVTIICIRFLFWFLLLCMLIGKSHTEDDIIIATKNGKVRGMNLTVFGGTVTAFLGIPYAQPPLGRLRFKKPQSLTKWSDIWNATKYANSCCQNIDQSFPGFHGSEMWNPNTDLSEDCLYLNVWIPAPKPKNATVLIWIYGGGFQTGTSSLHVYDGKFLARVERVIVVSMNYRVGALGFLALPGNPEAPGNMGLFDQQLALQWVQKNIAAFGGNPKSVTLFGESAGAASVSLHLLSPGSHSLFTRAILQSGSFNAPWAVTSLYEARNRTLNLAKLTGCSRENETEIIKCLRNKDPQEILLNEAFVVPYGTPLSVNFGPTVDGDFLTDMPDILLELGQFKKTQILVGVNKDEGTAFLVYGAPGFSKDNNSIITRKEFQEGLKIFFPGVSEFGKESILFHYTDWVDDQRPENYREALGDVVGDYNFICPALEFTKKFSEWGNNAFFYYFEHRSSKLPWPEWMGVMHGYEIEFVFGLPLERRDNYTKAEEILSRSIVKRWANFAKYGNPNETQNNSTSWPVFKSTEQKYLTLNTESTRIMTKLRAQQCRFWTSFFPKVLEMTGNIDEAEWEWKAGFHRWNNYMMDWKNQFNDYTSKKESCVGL
Data set [3] addresses T1, Cholinesterase. Put plainly: Inhibition of human plasma BChE upto 45 mins at 100 umol/L by Ellman's method. It is filed as cell-free.

Chain of Acetylcholinesterase (P22303 whole entry): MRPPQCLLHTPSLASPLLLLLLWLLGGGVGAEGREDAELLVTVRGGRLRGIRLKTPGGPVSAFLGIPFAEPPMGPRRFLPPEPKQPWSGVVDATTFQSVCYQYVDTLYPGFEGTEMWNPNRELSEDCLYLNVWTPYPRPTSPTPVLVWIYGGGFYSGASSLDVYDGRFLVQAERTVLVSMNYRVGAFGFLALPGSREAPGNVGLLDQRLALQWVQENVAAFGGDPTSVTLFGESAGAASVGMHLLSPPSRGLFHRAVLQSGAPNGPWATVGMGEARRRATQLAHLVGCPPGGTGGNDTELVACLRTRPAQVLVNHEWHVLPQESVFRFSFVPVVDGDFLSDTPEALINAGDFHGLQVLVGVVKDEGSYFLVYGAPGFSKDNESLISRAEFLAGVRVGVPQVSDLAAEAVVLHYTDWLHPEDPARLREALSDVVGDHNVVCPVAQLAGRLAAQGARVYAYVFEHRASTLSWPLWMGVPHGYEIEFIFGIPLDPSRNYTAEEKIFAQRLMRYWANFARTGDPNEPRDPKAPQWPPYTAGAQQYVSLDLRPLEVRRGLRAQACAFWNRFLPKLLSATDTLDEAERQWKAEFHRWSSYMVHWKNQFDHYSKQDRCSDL

For the molecule `O=c1cc(-c2ccc(O)cc2)oc2cc(O)cc(O)c12` [APIGENIN], the Ki at Acetylcholinesterase is on record as 121.6 microM/L; on Cholinesterase [2], 37.4 microM/L. Besides, in data set [1], the Stability result was “Unstable”. For the same molecule, the Activity entry in the data set on HepG2 and in the data set with A549 was “Non-toxic” in each case. In the data set on THP-1, this molecule gave an IC50 of 60 microM/L.
For the molecule `O=c1c(O)c(-c2ccc(O)c(O)c2)oc2cc(O)ccc12` [FISETIN], the Ki at Acetylcholinesterase is recorded as 100.2 microM/L; on Cholinesterase [2], 90 microM/L. Moreover, the Stability entry in data set [1] is listed as “Unstable”. The Activity entry in the data set on HepG2 and in the data set on A549 was “Non-toxic” each time. The molecule also returned an IC50 with THP-1 of 30 microM/L.
With `O=c1c(O)c(-c2ccccc2)oc2cc(O)cc(O)c12` [GALANGIN], the Ki at Acetylcholinesterase was 85.6 microM/L; at Cholinesterase [2], 6.9 microM/L. In addition, the Stability entry in data set [1] is “Unstable”. Also, the Activity result in the data set with HepG2 and in the data set with A549 was “Non-toxic” each time.
`O=c1c(O)c(-c2ccc(O)cc2)oc2cc(O)cc(O)c12` [KAEMPFEROL]: the Ki at Acetylcholinesterase is 92.8 microM/L; at Cholinesterase [2], 43.1 microM/L. For the same molecule, the Stability entry in data set [1] is “Unstable”. Besides, the Activity result in the data set with HepG2 and in the data set on A549 was “Non-toxic” throughout. Further, the inhibition entry at Cholinesterase [3] was “inactive”.
For the molecule `O=c1cc(-c2ccc(O)c(O)c2)oc2cc(O)cc(O)c12` [LUTEOLIN], the values for the Ki on Acetylcholinesterase and on Cholinesterase [2] were 65.8 microM/L and 166.1 microM/L, respectively. For the same molecule, the Stability entry in data set [1] is on record as “Unstable”. Also, the Activity entry in the data set on HepG2 and in the data set on A549 was “Non-toxic” each time. This molecule showed an IC50 in the data set on THP-1 of 70 microM/L.
For `O=c1c(O)c(-c2cc(O)c(O)c(O)c2)oc2cc(O)cc(O)c12` [MYRICETIN], the Ki on Acetylcholinesterase was 37.8 microM/L; on Cholinesterase [2], 71 microM/L. Further, the Activity result with HepG2 and with A549 was “Non-toxic” each time. Further, the inhibition result on Cholinesterase [3] was “inactive”.
As for `O=c1c(O)c(-c2ccc(O)c(O)c2)oc2cc(O)cc(O)c12` [QUERCETIN], the figures for the Ki on Acetylcholinesterase and at Cholinesterase [2] were 38.3 microM/L and 68 microM/L, respectively. Further, in data set [1], the Stability result is recorded as “Unstable”. Further, the Activity result in the data set with HepG2 and in the data set with A549 was “Non-toxic” in each case.
As for `C[C@@H]1O[C@@H](OC[C@H]2O[C@@H](Oc3c(-c4ccc(O)c(O)c4)oc4cc(O)cc(O)c4c3=O)[C@H](O)[C@@H](O)[C@@H]2O)[C@H](O)[C@H](O)[C@H]1O` [RUTIN], the Ki is above 300 microM/L at Acetylcholinesterase and 501.2 microM/L on Cholinesterase [2]. Besides, in data set [1], the Stability result is recorded as “Stable”. For the same molecule, the Activity entry in the data set with HepG2 and in the data set on A549 was “Non-toxic” in each case.
